This passage reports Km results from paper PMC10704959 (Biochemistry, 2023).

The target of the experiment is MoLOX (Pyricularia oryzae, UniProt G4NAP4). The settings on record: read-out: KMμM.
MoLOX, sequence (G4NAP4 17-619 limits assumed): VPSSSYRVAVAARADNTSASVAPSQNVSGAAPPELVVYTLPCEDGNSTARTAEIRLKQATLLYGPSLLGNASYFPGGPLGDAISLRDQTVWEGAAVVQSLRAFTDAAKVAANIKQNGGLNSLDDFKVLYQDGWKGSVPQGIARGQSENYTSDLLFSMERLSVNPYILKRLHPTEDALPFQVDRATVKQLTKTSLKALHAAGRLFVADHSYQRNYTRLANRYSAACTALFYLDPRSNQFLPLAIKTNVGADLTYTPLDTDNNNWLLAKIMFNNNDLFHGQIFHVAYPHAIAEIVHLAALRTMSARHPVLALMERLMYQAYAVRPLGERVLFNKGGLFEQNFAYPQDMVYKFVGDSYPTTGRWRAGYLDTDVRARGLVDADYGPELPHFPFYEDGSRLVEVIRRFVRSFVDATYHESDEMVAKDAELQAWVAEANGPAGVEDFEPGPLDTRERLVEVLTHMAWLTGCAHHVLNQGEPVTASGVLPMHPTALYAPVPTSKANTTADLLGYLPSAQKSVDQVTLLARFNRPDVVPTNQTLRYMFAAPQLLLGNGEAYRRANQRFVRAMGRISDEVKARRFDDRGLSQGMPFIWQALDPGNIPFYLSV

For the compound `CCCCC/C=C\C/C=C\CCCCCCCC(=O)O` [LA, linoleic acid], the Km was 14 ± 2 µM.
